Measured values from patent publication US20240335395A1, “COMPOSITIONS AND METHODS FOR PREVENTING AND/OR TREATING DISEASE ASSOCIATED WITH IL-23 EXPRESSION” (ALLSPIM, priority 2021, published 2024).

Experiments:
IL-23 [1] = assay: IL-23 gene expression in RA-patient synovial cells (RT-qPCR); format: cell-based, human; settings: 2 h
Experimental: Synovial fluid was freshly collected from 20 patients with rheumatoid arthritis (RA) by arthrocentesis. At two hours after treatment or not with 2,4-D, RA-patient synovial cells were directly lysed using TRIzol reagent (Invitrogen, USA) followed by RNA extraction according to the manufacturer's protocol. Finally, RNA was dissolved in 10 μL DEPC-treated water, quantified on a NanoDrop 2000 spectrophotometer (Thermo Scientific Inc., USA), and reverse-transcribed using the Super Script III First-Strand Synthesis System for RT-PCR kit (Thermo Scientific, USA) according to the manufacturer's protocol. PCR was performed in duplicate using SYBR Green qPCR master mix (Takara Biomedical Technology Co., Ltd, Dalian, China) on an ABI 7500 Real-Time PCR System (Thermo, USA). The cycling program was as follows: denaturation at 95° C. for 15 s, 40 cycles of 95° C. for 15 s and extension at 60° C. for 60 s, followed by melt curve generation. The ΔΔCT method was used to quantify relative mRNA levels as described in Example 1 above. The primer sequences specific for human IL-17 genes (hu-IL-17 Forward: 5′-[…]-3′; hu-IL-17 Reverse: 5′-GGCACTTTGCCTCCCAGAT-3′) (SEQ ID NOs 8 and 9, respectively) and IL-23 (see Example 1, above) were used.

IL-23 [2] = assay: IL-23 production (ELISA of supernatant) in LPS-stimulated THP-1 cell culture, Examples 1 and 8; format: cell-based, human
Experimental: (§1) The THP-1 cell line (TIB-202) was obtained from the American Type Culture Collection (ATCC, USA), grown in RPMI 1640 culture medium (Gibco) supplemented with 10% fetal bovine serum (Gibco, UK), 50 U/mL penicillin-streptomycin (Gibco), and 0.05 mM 2-Mercaptoethanol (Gibco). Cultured cells were plated into culture plates in appropriate volumes with a cell density of 500,000 cells/mL.
PCR was performed in duplicate using SYBR Green qPCR master mix (Takara Biomedical Technology Co., Ltd, Dalian, China) on an ABI 7500 Real-Time PCR System (Thermo, USA). The cycling program was as follows: denaturation at 95° C. for 15 s, 40 cycles of 95° C. for 15 s and extension at 60° C. for 60 s, followed by melt curve generation. The ΔΔCT method was used to quantify relative mRNA levels as described in User Bulletin #2 for the ABI PRISM 7700 Sequence Detection System (Applied Biosystems, 2001). The primer sequences used in this study are 5′-[…]-3′ (forward), 5′-[…]-3′ (reverse) for human IL-23p19 (SEQ ID NOs: 4 and 5, respectively); and 5′-ACAGTCCATGCCATCACTG-3′ (forward) and 5′-AGTAGAGGCAGGGATGATG-3′ for human GAPDH as a reference (SEQ ID NOs: 6 and 7, respectively). 24 hours after culture and treatments, supernatants were collected and IL-23 levels measured using the IL-23 Human Uncoated ELISA Kit (ThermoFisher Scientific Inc., USA) according to the manufacturer's instructions. A Varioskan LUX microplate reader (Thermo Fisher, USA) was used for the assay and 4-parameter logistic regression was used for data analysis. Two duplicates per sample were performed and results were averaged.
The anti-IL-23 activity of 2,4-D was compared with the commercially prescribed nonsteroidal anti-inflammatory drugs (NSAIDs:[…], Ibuprofen, and Aspirin) in the LPS-stimulated THP-1 cell culture system described above (Example 1)).

IL-23 gene (IL-23p19) = assay: IL-23 gene expression (RT-qPCR) in LPS-stimulated THP-1 cell culture; format: cell-based, human; settings: THP-1, LPS 10 ng/ml, 2 h
Experimental: as §1
At two hours after stimulation with LPS (10 ng/ml) in the presence or not of 2,4-D at increasing concentrations, THP-1 cells from each experimental condition were directly lysed using TRIzol reagent (Invitrogen, USA) followed by RNA extraction according to the manufacturer's instructions. Finally, RNA was dissolved in 10 μL diethyl pyrocarbonate (DEPC)-treated water, quantified on a NanoDrop 2000 spectrophotometer (Thermo Scientific Inc., USA), and reverse-transcribed using the Super Script III First-Strand Synthesis System for RT-PCR kit (Thermo Scientific, USA) according to the manufacturer's instructions.
PCR was performed in duplicate using SYBR Green qPCR master mix (Takara Biomedical Technology Co., Ltd, Dalian, China) on an ABI 7500 Real-Time PCR System (Thermo, USA). […] The ΔΔCT method was used to quantify relative mRNA levels as described in User Bulletin #2 for the ABI PRISM 7700 Sequence Detection System (Applied Biosystems, 2001). […]

[3] = system: TPA-induced psoriasis-like skin hyperplasia; assay: TPA-induced psoriasis-like skin hyperplasia in BALB/c mice; format: in vivo, mouse
Experimental: Induction of TPA-induced psoriasis-like skin hyperplasia in mice treated with oral 2,4-D. Forty mice (BALB/c) were purchased from Guangdong Experimental Animal Center. All experiments were approved by the animal ethics committee of Guangzhou University of Chinese Medicine according to Chinese legislation on animal experiments. Mice (n=30) at 8 to 11 weeks of age received a daily topical dose of 15 μg TPA (Sigma) in 200 μl of acetone on the shaved back for day 1 and 4. This dose was empirically determined to cause the most optimal and reproducible skin inflammation in mice (data not shown). Control mice (n=10) were treated similarly with a control vehicle cream (Sigma). See FIG. 9 for an illustrative example of a mouse receiving topical TPA as compared to a control mouse receiving a control vehicle cream. Of the 30 mice that received topical TPA, 20 mice were treated orally with 0.2 mg (n=10) or 1 mg (n=10) 2,4-D daily until day 6. The remaining 10 untreated TPA mice served as a disease control. On day 7, dorsal skin was photographed and fixed in 10% formalin and stained with H&E (Haemotoxylin and Eosin). Epidermal thickness was quantified by Image J software.
Statistical analysis. Data are presented as the mean±SD for the in vivo animal study. Statistical analysis was performed using Student's t-test (paired 2-sample testing).

COc1cc(O)c(OC)c(O)c1C(=O)/C=C/c1ccccc1 [2,4-D, 2′,4′-dihydroxy-3′,6′-dimethoxychalcone]
decrease of IL-23 expression (IL-23 [1]; 1 μg/ml): 8 fold | inhibition of IL-23 expression (IL-23 [1]; 5 μg/ml): 65 fold | decrease of IL-23 detected in culture supernatant (IL-23 [2]; LPS-stimulated THP-1, 24 h): more than 90% | inhibition in IL-23 production/release in supernatant (IL-23 [2]; LPS-stimulated THP-1, Example 8): 5 to 10 fold | concentration of maximum inhibition of IL-23 cytokine production (IL-23 [2]; LPS-stimulated THP-1 cell culture): 20 µg/mL | IL-23 gene expression (IL-23 gene (IL-23p19)): strongly inhibited | thickness of back skin compared with normal skin of control mice ([3]; 0.2 mg daily oral): significantly higher | thickness of back skin hyperplasia compared with untreated mice ([3]; 0.2 mg daily oral): significantly lower | thickness of back skin compared with normal skin of control mice ([3]; 1 mg daily oral): similar | thickness of back skin hyperplasia compared with untreated mice ([3]; 1 mg daily oral): significantly lower | dorsal skin compared to mice receiving TPA only ([3]; 0.2 or 1 mg daily oral): improved in a dose-dependent manner
